pIC50: −log10 of the molar value.
Target: T1, TNKS1 (Homo sapiens, UniProt O95271)
T1 sequence (O95271 1-1327): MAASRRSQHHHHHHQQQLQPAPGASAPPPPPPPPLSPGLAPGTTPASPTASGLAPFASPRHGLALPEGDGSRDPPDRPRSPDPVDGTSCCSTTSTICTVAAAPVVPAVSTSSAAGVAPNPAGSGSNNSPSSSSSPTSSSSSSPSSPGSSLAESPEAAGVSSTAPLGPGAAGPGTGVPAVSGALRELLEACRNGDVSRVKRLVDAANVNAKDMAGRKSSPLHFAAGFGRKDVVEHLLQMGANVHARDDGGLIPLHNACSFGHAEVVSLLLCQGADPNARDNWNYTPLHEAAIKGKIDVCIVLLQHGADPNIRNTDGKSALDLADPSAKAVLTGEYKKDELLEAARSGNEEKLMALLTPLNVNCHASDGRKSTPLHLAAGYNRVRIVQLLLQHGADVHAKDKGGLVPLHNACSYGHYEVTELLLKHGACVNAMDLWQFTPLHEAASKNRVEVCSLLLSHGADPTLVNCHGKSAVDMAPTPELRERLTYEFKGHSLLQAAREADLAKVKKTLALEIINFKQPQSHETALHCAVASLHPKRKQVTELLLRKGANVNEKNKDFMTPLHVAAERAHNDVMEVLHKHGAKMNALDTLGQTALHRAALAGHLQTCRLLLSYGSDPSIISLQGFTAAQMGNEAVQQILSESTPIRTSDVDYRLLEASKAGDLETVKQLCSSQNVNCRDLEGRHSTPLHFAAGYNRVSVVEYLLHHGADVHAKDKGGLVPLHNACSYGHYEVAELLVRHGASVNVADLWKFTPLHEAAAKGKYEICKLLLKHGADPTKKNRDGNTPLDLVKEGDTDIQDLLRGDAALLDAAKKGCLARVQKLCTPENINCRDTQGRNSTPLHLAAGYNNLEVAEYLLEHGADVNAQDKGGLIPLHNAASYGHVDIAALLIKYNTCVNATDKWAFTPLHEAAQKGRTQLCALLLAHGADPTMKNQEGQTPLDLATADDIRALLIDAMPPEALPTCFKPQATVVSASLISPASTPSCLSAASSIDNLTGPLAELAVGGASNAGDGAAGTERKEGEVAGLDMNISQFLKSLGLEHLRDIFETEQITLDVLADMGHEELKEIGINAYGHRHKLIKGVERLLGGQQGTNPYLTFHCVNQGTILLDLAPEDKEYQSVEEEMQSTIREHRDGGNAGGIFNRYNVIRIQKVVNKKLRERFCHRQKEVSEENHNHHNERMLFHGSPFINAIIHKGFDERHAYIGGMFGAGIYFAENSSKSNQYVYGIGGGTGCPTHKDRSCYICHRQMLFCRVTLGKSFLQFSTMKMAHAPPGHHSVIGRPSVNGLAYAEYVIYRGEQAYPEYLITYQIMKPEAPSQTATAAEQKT
Experiment: Modified TNKS1 Assay 3 (BPS kit #80573, biotin-NAD+, 96 well)
Assay type: biochemical
Conditions: human TNKS1, BPS kit #80573, 96 well
Summary of the method: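 Chemiluminescent assay of TNKS1-catalysed ribosylation of a protein substrate with biotin-labelled NAD+, detected via streptavidin-HRP; run per kit protocol. Inhibition lowers the signal, and IC50 is the compound concentration halving the normalised readout.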

C[C@@H]1CCCN(CCNC(=O)c2[nH]cnc2C(=O)Nc2ccc(NC(=O)c3ccc(F)cc3Cl)cc2)C1 [Example 278, N^4-{4-[(2-chloro-4-fluorobenzoyl)amino]phenyl}-N^5-{2-[(3R)-3-methylpiperidin-1-yl]ethyl}-1H-imidazole-4,5-dicarboxamide]
pIC50: > 9.30

O=C(Nc1ccc(NC(=O)c2[nH]cnc2C(=O)N2CC3(COC3)C2)cc1)c1cc(F)c(F)cc1Cl [Example 52, N-{4-[(2-chloro-4,5-difluorobenzoyl)amino]phenyl}-4-(2-oxa-6-azaspiro[3.3]hept-6-ylcarbonyl)-1H-imidazole-5-carboxamide]
pIC50: < 6.30

O=C(Nc1ccc(NC(=O)c2[nH]cnc2C(=O)NC2CC2)cc1)c1cc(F)c(F)cc1Cl [Example 51, N^5-{4-[(2-chloro-4,5-difluorobenzoyl)amino]phenyl}-N^4-cyclopropyl-1H-imidazole-4,5-dicarboxamide]
pIC50: 6.64

CS(=O)(=O)c1ccc(C(=O)Nc2ccc(NC(=O)c3[nH]cnc3C(=O)NCCN3CCCCC3)cc2)c(Cl)c1 [Example 53, N^5-(4-{[2-chloro-4-(methylsulfonyl)benzoyl]amino}phenyl)-N^4-[2-(piperidin-1-yl)ethyl]-1H-imidazole-4,5-dicarboxamide]
pIC50: 8.70

CC(CN1CCOCC1)NC(=O)c1[nH]cnc1C(=O)Nc1ccc(NC(=O)c2ccc(F)cc2Cl)cc1 (single isomer, unassigned; enantiomer 2) [Example 270, N^4-{4-[(2-chloro-4-fluorobenzoyl)amino]phenyl}-N^5-[1-(morpholin-4-yl)propan-2-yl]-1H-imidazole-4,5-dicarboxamide (enantiomer 2)]
pIC50: 8.15

C[C@@H]1CCCCN1CCNC(=O)c1[nH]cnc1C(=O)Nc1ccc(NC(=O)c2ccc(F)cc2Cl)cc1 [Example 267, N^4-{4-[(2-chloro-4-fluorobenzoyl)amino]phenyl}-N^5-{2-[(2R)-2-methylpiperidin-1-yl]ethyl}-1H-imidazole-4,5-dicarboxamide]
pIC50: 7.70

CNC(=O)c1nc[nH]c1C(=O)Nc1ccc(NC(=O)c2ccc(S(C)(=O)=O)cc2Cl)cc1 [Example 55, N^5-(4-{[2-chloro-4-(methylsulfonyl)benzoyl]amino}phenyl)-N^4-methyl-1H-imidazole-4,5-dicarboxamide]
pIC50: 7.52

CNC(=O)c1nc[nH]c1C(=O)Nc1ccc(NC(=O)c2ccc(F)cc2I)cc1 [Example 61, N^5-{4-[(4-fluoro-2-iodobenzoyl)amino]phenyl}-N^4-methyl-1H-imidazole-4,5-dicarboxamide]
pIC50: 6.85

CNC(=O)c1nc[nH]c1C(=O)Nc1ccc(NC(=O)c2ccc(F)cc2Br)cc1 [Example 56, N^5-{4-[(2-bromo-4-fluorobenzoyl)amino]phenyl}-N^4-methyl-1H-imidazole-4,5-dicarboxamide]
pIC50: 7.05

O=C(Nc1ccc(NC(=O)c2[nH]cnc2C(=O)NCCN2CCCCC2)cc1)c1ccc(F)cc1Cl [Example 32, N^4-{4-[(2-chloro-4-fluorobenzoyl)amino]phenyl}-N^5-[2-(piperidin-1-yl)ethyl]-1H-imidazole-4,5-dicarboxamide]
pIC50: 8.10

Cc1nc(C(=O)Nc2ccc(NC(=O)c3ccc(F)cc3Cl)cc2)c(C(=O)NCCN2CCCCC2)[nH]1 [Example 67, N^4-{4-[(2-chloro-4-fluorobenzoyl)amino]phenyl}-2-methyl-N^5-[2-(piperidin-1-yl)ethyl]-1H-imidazole-4,5-dicarboxamide]
pIC50: 8.30

CN(C)CCNC(=O)c1nc[nH]c1C(=O)Nc1ccc(NC(=O)c2ccc(F)cc2Cl)cc1 [Example 22, N^4-{4-[(2-chloro-4-fluorobenzoyl)amino]phenyl}-N^5-[2-(dimethylamino)ethyl]-1H-imidazole-4,5-dicarboxamide]
pIC50: 7.52

Source: patent US9884063B2, “Amido-substituted azole compounds” (Bayer Pharma Aktiengesellschaft, priority 2014, dated 2018)
